Assay results reported in patent publication US6121322A, “Azulene derivatives” (Boehringer Mannheim GmbH, priority 1997, dated 2000).
In brackets after ≈: the same amount, converted by molar mass. Entries after “also recorded” stand apart in the source; their conditions may differ.

Tests used:
[1] = tested on: TNFα synthesis; assay: TNFα Synthesis Assay (LPS-stimulated human leukocytes, TNFα in supernatant by enzyme immunoassay); assay type: cell-based; conditions: Leukocyte, 37° C., 2 hours, read-out: TNFα synthesis inhibition in vitro IC50
Protocol: Experimental Procedure in Vitro
Human leukocytes are obtained from heparinized full blood over a Ficol gradient, washed with RPMI 1640 medium having the prescribed additives and adjusted in the same medium to a cell count of 1×10^6 cells/ml. 20 μl of the substance to be tested in 10-fold concentration, 20 μl of an LPS solution of 4 μg/ml and 160 μl of the adjusted cell suspension are incubated in the individual wells of a 96 well culture plate at 37° C. for 2 hours. The experiments are carried out as double determinations. At the end of the incubation period the plates are carefully shaken and centrifuged. Two samples each of 50 μl are withdrawn from the clear culture supernatant for the analysis of TNFα.
Analysis of TNFα in the Cell Cupernatant by Enzyme Immunoassay
Nunc-Maxisorb plates are coated with a mouse-anti-human-TNFα antibody (1 μg/ml, 50 μl/well, Dianova/Pharmingen 18631D, carbonate buffer pH 9.5) and free binding capacity is saturated with a gelatine- and serum albumin-containing blocking buffer. After washing the plates there are pipetted in double determination in each case 25 μl of the analyte as well as on each plate a series of standard concentrations. For the detection of the analyte, 25 μl of a biotinylated mouse-anti-human-TNFα antibody ([…] 25 μl/well, Dianova/Pharmingen 18642D, blocking buffer) are added and the plates are shaken at room temperature for 2 hours. After washing incubation is carried out with streptavidin-alkaline phosphatase conjugate (50 μl/well) and finally with 4-nitrophenyl phosphate and evaluation is carried out on a photometer. The concentrations of the measured samples are determined using a computer program based on a calibration curve from the co-determined standard concentrations.
Determination of the IC50
The percentage inhibition for the individual sample is calculated by comparing the TNFα concentration obtained for the measured samples with the non-inhibited samples. The IC50 is determined by computer from the concentration relationship of the inhibitor value.

[2] = tested on: PDE4; conditions: cited from earlier work
[3] = tested on: TNFα; conditions: in vivo; cited from earlier work
[4] = tested on: animal models for multiple sclerosis; conditions: animal experiments; cited from earlier work
[5] = in vivo; cited from earlier work
[6] = tested on: TNFα; conditions: cited from earlier work
[7] = tested on: HIV; conditions: cited from earlier work

Row | Compound | IC50 [1] [µg/mL] | side effects [5] | also measured
1 | CCOC(=O)c1c2ccc(CC(=O)NOCC(=O)N(CCOC)CCOC)ccc-2c(C(=O)OCC)c1N [Example 4, Diethyl 2-amino-6-{[2-oxo-2-(N,N-bis-2-methoxyethyl-amino)-ethoxycarbamoyl]-methyl}-azulene-1,3-dicarboxylate] | 0.03 (≈ 0.0562 µM) | – | –
2 | CCOC(=O)c1c2ccc(CC(=O)NOCCN3CCOCC3)ccc-2c(C(=O)OCC)c1N [Example 20] | 0.05 (≈ 0.106 µM) | – | –
3 | CCOC(=O)c1c2ccc(CC(=O)NOC(=O)N3CCN(C)CC3)ccc-2c(C(=O)OCC)c1N [Example 31, Diethyl 2-amino-6-{[(4-methyl-piperazino)-carbonyloxy-carbamoyl]-methyl}-azulene-1,3-dicarboxylate] | 0.1 (≈ 0.206 µM) | – | –
4 | COc1ccc(C2CNC(=O)C2)cc1OC1CCCC1 (stereo not shown) [rolipram] | – | emetic activity; also recorded: massive side effects | inhibition of PDE4 [2]: inhibits PDE4; inhibition of the synthesis of TNFα [3]: inhibition of the synthesis of TNFα in vitro and in vivo; activity in animal models for multiple sclerosis [4]: very good activity
5 | O=C1CCC(N2C(=O)c3ccccc3C2=O)C(=O)N1 (stereo not shown) [Thalidomide] | – | teratogenic side effects | TNFα blockade [6]: weak TNFα blockade; suppression of the proliferation of HIV [7]: supresses the proliferation of HIV
